Structures can show the parent of a compound that is named as a salt. Where two headings read alike, the source gives them in different places.
Experiments:
[1] = molecular target: purified human Factor XIa (Homo sapiens (Human), UniProt P03951); test: Factor XIa enzyme inhibition assay (chromogenic substrate S-2366)
[2] = molecular target: purified human plasma kallikrein (Homo sapiens (Human), UniProt P03952); test: Plasma kallikrein enzyme inhibition assay (chromogenic substrate S-2302); format: biochemical
Chain of purified human plasma kallikrein (P03952 391-638): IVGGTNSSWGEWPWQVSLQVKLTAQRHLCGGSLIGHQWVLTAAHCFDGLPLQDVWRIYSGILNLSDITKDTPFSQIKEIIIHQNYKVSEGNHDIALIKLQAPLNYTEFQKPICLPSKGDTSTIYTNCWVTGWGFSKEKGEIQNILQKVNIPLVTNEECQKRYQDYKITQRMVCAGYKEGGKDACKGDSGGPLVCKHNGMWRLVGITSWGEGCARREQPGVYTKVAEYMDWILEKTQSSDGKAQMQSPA
Chain of purified human plasma kallikrein (P03952 20-390 partner): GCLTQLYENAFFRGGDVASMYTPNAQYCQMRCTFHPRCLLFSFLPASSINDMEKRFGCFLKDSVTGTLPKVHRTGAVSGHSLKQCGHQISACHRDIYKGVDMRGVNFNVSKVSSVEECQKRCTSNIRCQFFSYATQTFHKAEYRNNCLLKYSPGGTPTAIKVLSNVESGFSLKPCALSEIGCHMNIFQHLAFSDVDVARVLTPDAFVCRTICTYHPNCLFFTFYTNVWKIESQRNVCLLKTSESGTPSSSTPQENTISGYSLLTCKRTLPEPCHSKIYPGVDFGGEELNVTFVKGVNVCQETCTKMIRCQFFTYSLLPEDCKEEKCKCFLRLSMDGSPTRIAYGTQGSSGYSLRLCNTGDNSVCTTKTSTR

[3] = read-out: Factor XIa Ki, measured at 25° C.
[4] = measured at 25° C. (no asterisk)

Chain of purified human Factor XIa (P03951 388-625): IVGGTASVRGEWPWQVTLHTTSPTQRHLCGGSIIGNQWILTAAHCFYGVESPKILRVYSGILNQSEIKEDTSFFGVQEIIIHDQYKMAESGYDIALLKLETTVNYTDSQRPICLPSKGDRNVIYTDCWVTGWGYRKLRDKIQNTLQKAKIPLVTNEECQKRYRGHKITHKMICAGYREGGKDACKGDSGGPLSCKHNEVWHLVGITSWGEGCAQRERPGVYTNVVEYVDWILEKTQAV
Chain of purified human Factor XIa (P03951 19-387 partner): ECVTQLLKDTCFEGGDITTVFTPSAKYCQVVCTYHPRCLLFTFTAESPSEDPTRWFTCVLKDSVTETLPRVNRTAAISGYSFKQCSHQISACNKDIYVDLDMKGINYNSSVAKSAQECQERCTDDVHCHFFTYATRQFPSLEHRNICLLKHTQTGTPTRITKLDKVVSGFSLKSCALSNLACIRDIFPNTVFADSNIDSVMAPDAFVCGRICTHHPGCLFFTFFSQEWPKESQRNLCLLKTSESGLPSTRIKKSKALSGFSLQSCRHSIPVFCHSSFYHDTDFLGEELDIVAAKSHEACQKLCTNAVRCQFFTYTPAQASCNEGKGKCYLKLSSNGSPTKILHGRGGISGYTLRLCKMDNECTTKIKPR

SMILES	Ki [1, 3] [nM]	Ki [2, 4] [nM]	Ki [1] [nM]	Ki ([2]; measured at 37° C. (*)) [nM]
CN(C)C1CCN(c2cccc3c2CCN(C(=O)c2cnn(-c4cccc(Cl)c4F)c2)C3C(=O)Nc2ccc(-c3ncco3)cc2)CC1 (centres unmarked) [Example 93, 2-(1-(3-Chloro-2-fluorophenyl)-1H-pyrazole-4-carbonyl)-5-(4-(dimethylamino)piperidin-1-yl)-N-(4-(oxazol-2-yl)phenyl)-1,2,3,4-tetrahydroisoquinoline-1-carboxamide, bis-TFA salt]	6.65	9.65		
CN(C)C1CCN(c2cccc3c2CCN(C(=O)c2cnn(-c4cccc(Cl)c4F)c2)C3C(=O)Nc2ccc(OCC3CCCO3)cc2)CC1 (centres unmarked) [Example 95, 2-(1-(3-chloro-2-fluorophenyl)-1H-pyrazole-4-carbonyl)-5-(4-(dimethylamino)piperidin-1-yl)-N-(4-((tetrahydrofuran-2-yl)methoxy)phenyl)-1,2,3,4-tetrahydroisoquinoline-1-carboxamide, TFA salt]	14.7	16.9		
CN(C)C1CCN(c2cccc3c2CCN(C(=O)c2cnn(-c4cccc(Cl)c4F)c2)C3C(=O)Nc2ccc(OC(F)F)cc2)CC1 (centres unmarked) [Example 96, 2-(1-(3-chloro-2-fluorophenyl)-1H-pyrazole-4-carbonyl)-N-(4-(difluoromethoxy)phenyl)-5-(4-(dimethylamino)piperidin-1-yl)-1,2,3,4-tetrahydroisoquinoline-1-carboxamide, TFA salt]	20.3	34		
COc1ccc(NC(=O)C2c3cccc(N4CCC(N(C)C)CC4)c3CCN2C(=O)c2cnn(-c3cccc(Cl)c3F)c2)cc1 (centres unmarked) [Example 97, 2-(1-(3-chloro-2-fluorophenyl)-1H-pyrazole-4-carbonyl)-5-(4-(dimethylamino)piperidin-1-yl)-N-(4-methoxyphenyl)-1,2,3,4-tetrahydroisoquinoline-1-carboxamide, TFA salt]	9.13	21.7		
Cc1nc(-c2ccc(NC(=O)C3c4cccc(N5CCC(N(C)C)CC5)c4CCN3C(=O)c3cn(-c4cccc(Cl)c4F)nn3)cc2)no1 (centres unmarked) [Example 98, 2-(1-(3-Chloro-2-fluorophenyl)-1H-1,2,3-triazole-4-carbonyl)-5-(4-(dimethylamino)piperidin-1-yl)-N-(4-(5-methyl-1,2,4-oxadiazol-3-yl)phenyl)-1,2,3,4-tetrahydroisoquinoline-1-carboxamide, bis-TFA salt]	6.69	5.2		
CN(C)C1CCN(c2cccc3c2CCN(C(=O)c2cn(-c4cccc(Cl)c4F)nn2)C3C(=O)Nc2ccc(C(N)=O)cc2)CC1 (centres unmarked) [Example 99, N-(4-Carbamoylphenyl)-2-(1-(3-chloro-2-fluorophenyl)-1H-1,2,3-triazole-4-carbonyl)-5-(4-(dimethylamino)piperidin-1-yl)-1,2,3,4-tetrahydroisoquinoline-1-carboxamide, bis-TFA salt]	< 5	2.74		
CN(C)C1CCN(c2cccc3c2CCN(C(=O)c2cn(-c4cccc(Cl)c4F)nn2)[C@H]3C(=O)Nc2ccc(C(N)=O)cc2)CC1 [Example 100, (R)-N-(4-Carbamoylphenyl)-2-(1-(3-chloro-2-fluorophenyl)-1H-1,2,3-triazole-4-carbonyl)-5-(4-(dimethylamino)piperidin-1-yl)-1,2,3,4-tetrahydroisoquinoline-1-carboxamide, bis-TFA salt]	289	494		
CN(C)C1CCN(c2cccc3c2CCN(C(=O)c2cn(-c4cccc(Cl)c4F)nn2)[C@@H]3C(=O)Nc2ccc(C(N)=O)cc2)CC1 [Example 101, (S)-N-(4-Carbamoylphenyl)-2-(1-(3-chloro-2-fluorophenyl)-1H-1,2,3-triazole-4-carbonyl)-5-(4-(dimethylamino)piperidin-1-yl)-1,2,3,4-tetrahydroisoquinoline-1-carboxamide, bis-TFA salt]	< 5	1.75		
CN(C)C1CCN(c2cccc3c2CCN(C(=O)c2cn(-c4cccc(Cl)c4F)nn2)C3C(=O)Nc2ccc(-c3cn[nH]c3)cc2)CC1 (centres unmarked) [Example 102, N-(4-(1H-Pyrazol-4-yl)phenyl)-2-(1-(3-chloro-2-fluorophenyl)-1H-1,2,3-triazole-4-carbonyl)-5-(4-(dimethylamino)piperidin-1-yl)-1,2,3,4-tetrahydroisoquinoline-1-carboxamide, bis-TFA salt]	< 5	1.39		
CN(C)C1CCN(c2cccc3c2CCN(C(=O)c2cn(-c4cccc(Cl)c4F)nn2)[C@H]3C(=O)Nc2ccc(-c3cn[nH]c3)cc2)CC1 [Example 103, (R)-N-(4-(1H-Pyrazol-4-yl)phenyl)-2-(1-(3-chloro-2-fluorophenyl)-1H-1,2,3-triazole-4-carbonyl)-5-(4-(dimethylamino)piperidin-1-yl)-1,2,3,4-tetrahydroisoquinoline-1-carboxamide, bis-TFA salt]	17.9	34		
CN(C)C1CCN(c2cccc3c2CCN(C(=O)c2cn(-c4cccc(Cl)c4F)nn2)[C@@H]3C(=O)Nc2ccc(-c3cn[nH]c3)cc2)CC1 [Example 104, (S)-N-(4-(1H-Pyrazol-4-yl)phenyl)-2-(1-(3-chloro-2-fluorophenyl)-1H-1,2,3-triazole-4-carbonyl)-5-(4-(dimethylamino)piperidin-1-yl)-1,2,3,4-tetrahydroisoquinoline-1-carboxamide, bis-TFA salt]	< 5	0.96		
CN(C)C1CCN(c2cccc3c2CCN(C(=O)c2cn(-c4cccc(Cl)c4F)nn2)C3C(=O)Nc2ccc(-c3nnn[nH]3)cc2)CC1 (centres unmarked) [Example 105, N-(4-(1H-Tetrazol-5-yl)phenyl)-2-(1-(3-chloro-2-fluorophenyl)-1H-1,2,3-triazole-4-carbonyl)-5-(4-(dimethylamino)piperidin-1-yl)-1,2,3,4-tetrahydroisoquinoline-1-carboxamide, bis-TFA salt]	< 5	1.69		
CN1CCC2(CCN(c3cccc4c3CCN(C(=O)c3cn(-c5cccc(Cl)c5F)nn3)C4C(=O)Nc3ccc(C(=O)O)cc3)CC2)C1=O (centres unmarked) [Example 106, 4-(2-(1-(3-Chloro-2-fluorophenyl)-1H-1,2,3-triazole-4-carbonyl)-5-(2-methyl-1-oxo-2,8-diazaspiro[4.5]decan-8-yl)-1,2,3,4-tetrahydroisoquinoline-1-carboxamido)benzoic acid, TFA salt]	< 5	7.58		
CN1CCC2(CCN(c3cccc4c3CCN(C(=O)c3cnn(-c5cccc(Cl)c5F)c3)C4C(=O)Nc3ccc(C(=O)O)cc3)CC2)C1=O (centres unmarked) [Example 107, 4-(2-(1-(3-Chloro-2-fluorophenyl)-1H-pyrazole-4-carbonyl)-5-(2-methyl-1-oxo-2,8-diazaspiro[4.5]decan-8-yl)-1,2,3,4-tetrahydroisoquinoline-1-carboxamido)benzoic acid, TFA salt]	< 5	12.5		
N#Cc1cccc2c1CCN(C(=O)c1cn(-c3cccc(Cl)c3F)nn1)C2C(=O)Nc1ccc(C(=O)O)cc1 (centres unmarked) [Example 108, 4-(2-(1-(3-Chloro-2-fluorophenyl)-1H-1,2,3-triazole-4-carbonyl)-5-cyano-1,2,3,4-tetrahydroisoquinoline-1-carboxamido)benzoic acid]	48.8	50		
NCc1cccc2c1CCN(C(=O)c1cn(-c3cccc(Cl)c3F)nn1)C2C(=O)Nc1ccc(C(=O)O)cc1 (centres unmarked) [Example 109, 4-(5-(Aminomethyl)-2-(1-(3-chloro-2-fluorophenyl)-1H-1,2,3-triazole-4-carbonyl)-1,2,3,4-tetrahydroisoquinoline-1-carboxamido)benzoic acid, TFA salt]	14.5	2.29		
O=C(O)c1ccc(NC(=O)C2c3cccc(Br)c3CCN2C(=O)c2cn(-c3cccc(Cl)c3F)nn2)cc1 (centres unmarked) [Example 110, 4-(5-Bromo-2-(1-(3-chloro-2-fluorophenyl)-1H-1,2,3-triazole-4-carbonyl)-1,2,3,4-tetrahydroisoquinoline-1-carboxamido)benzoic acid]	72.7	23		
O=C(O)c1ccc(NC(=O)C2c3cccc(OC4CCNCC4)c3CCN2C(=O)c2cn(-c3cccc(Cl)c3F)nn2)cc1 (centres unmarked) [Example 112, 4-(2-(1-(3-Chloro-2-fluorophenyl)-1H-1,2,3-triazole-4-carbonyl)-5-(piperidin-4-yloxy)-1,2,3,4-tetrahydroisoquinoline-1-carboxamido)benzoic acid, TFA salt]	< 5	3.16		
COCCOc1cccc2c1CCN(C(=O)c1cn(-c3cccc(Cl)c3F)nn1)C2C(=O)Nc1ccc(C(=O)O)cc1 (centres unmarked) [Example 113, 4-(2-(1-(3-Chloro-2-fluorophenyl)-1H-1,2,3-triazole-4-carbonyl)-5-(2-methoxyethoxy)-1,2,3,4-tetrahydroisoquinoline-1-carboxamido)benzoic acid]		11.9	< 5	
CCOC(=O)Cc1ccc(NC(=O)C2c3cccc(-c4ccc(C(=O)NC)nc4)c3CCN2C(=O)c2cn(-c3cccc(Cl)c3F)nn2)cc1 (centres unmarked) [Example 116, Ethyl 2-(4-(2-(1-(3-Chloro-2-fluorophenyl)-1H-1,2,3-triazole-4-carbonyl)-5-(6-(methylcarbamoyl)pyridin-3-yl)-1,2,3,4-tetrahydroisoquinoline-1-carboxamido)phenyl)acetate, TFA salt]	13.6	128		
CNC(=O)c1ccc(-c2cccc3c2CCN(C(=O)c2cn(-c4cccc(Cl)c4F)nn2)C3C(=O)Nc2ccc(CC(=O)O)cc2)cn1 (centres unmarked) [Example 117, 2-(4-(2-(1-(3-Chloro-2-fluorophenyl)-1H-1,2,3-triazole-4-carbonyl)-5-(6-(methylcarbamoyl)pyridin-3-yl)-1,2,3,4-tetrahydroisoquinoline-1-carboxamido)phenyl)acetic acid, TFA salt]	< 5	16.3		
COC1CCN(c2cccc3c2CCN(C(=O)c2cn(-c4cccc(Cl)c4F)nn2)C3C(=O)Nc2ccccc2)CC1 (centres unmarked) [Example 118, 2-(1-(3-Chloro-2-fluorophenyl)-1H-1,2,3-triazole-4-carbonyl)-5-(4-methoxypiperidin-1-yl)-N-phenyl-1,2,3,4-tetrahydroisoquinoline-1-carboxamide, TFA salt]	38			250

— patent US9738655B2, “Tetrahydroisoquinolines containing substituted azoles as factor XIa inhibitors” (BRISTOL-MYERS SQUIBB COMPANY, priority 2013, dated 2017)
